Ki data for 13 compounds are collected here from ChEMBL document CHEMBL1138672, “Dopamine/serotonin receptor ligands. 9. Oxygen-containing midsized heterocyclic ring systems and nonrigidized analogues. A step toward dopamine D5 receptor selectivity” (J Med Chem, 2004).

One experiment concerns the target D(1A) dopamine receptor (Homo sapiens, UniProt P21728).
For a further experiment, the target named is T1, D(4) dopamine receptor (Homo sapiens, UniProt P21917).
T1 sequence (P21917 whole entry): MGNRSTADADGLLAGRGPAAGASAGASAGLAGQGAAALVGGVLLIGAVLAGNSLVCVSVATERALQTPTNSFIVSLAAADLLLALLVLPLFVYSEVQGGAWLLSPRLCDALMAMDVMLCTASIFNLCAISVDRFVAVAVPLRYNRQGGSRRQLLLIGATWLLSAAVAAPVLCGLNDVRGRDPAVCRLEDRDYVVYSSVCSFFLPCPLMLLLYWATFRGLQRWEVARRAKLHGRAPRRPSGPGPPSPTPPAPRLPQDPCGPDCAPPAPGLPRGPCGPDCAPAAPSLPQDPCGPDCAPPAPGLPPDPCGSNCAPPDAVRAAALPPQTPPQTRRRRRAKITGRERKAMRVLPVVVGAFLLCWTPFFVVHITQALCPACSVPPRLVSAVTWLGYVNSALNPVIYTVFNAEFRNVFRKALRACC
Description: Binding affinity for human recombinant dopamine receptor D4.4.

For a further experiment, the target named is D(2) dopamine receptor (Homo sapiens, UniProt P14416). Description: Binding affinity for human recombinant dopamine receptor D2L.
Sequence of D(2) dopamine receptor (P14416 whole entry): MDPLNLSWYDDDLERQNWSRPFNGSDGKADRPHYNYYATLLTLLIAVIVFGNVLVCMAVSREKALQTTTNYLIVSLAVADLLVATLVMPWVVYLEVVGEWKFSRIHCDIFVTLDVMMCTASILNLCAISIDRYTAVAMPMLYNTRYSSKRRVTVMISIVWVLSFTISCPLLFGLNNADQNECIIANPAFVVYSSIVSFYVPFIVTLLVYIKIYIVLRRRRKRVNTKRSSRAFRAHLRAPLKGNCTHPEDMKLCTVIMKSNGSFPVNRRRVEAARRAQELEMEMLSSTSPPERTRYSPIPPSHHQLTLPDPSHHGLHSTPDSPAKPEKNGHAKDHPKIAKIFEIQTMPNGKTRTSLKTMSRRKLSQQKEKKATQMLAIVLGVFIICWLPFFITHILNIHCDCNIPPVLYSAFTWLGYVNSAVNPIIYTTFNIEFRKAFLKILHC
Another experiment deals with D(3) dopamine receptor (Homo sapiens, UniProt P35462).
Sequence of D(3) dopamine receptor (P35462 whole entry): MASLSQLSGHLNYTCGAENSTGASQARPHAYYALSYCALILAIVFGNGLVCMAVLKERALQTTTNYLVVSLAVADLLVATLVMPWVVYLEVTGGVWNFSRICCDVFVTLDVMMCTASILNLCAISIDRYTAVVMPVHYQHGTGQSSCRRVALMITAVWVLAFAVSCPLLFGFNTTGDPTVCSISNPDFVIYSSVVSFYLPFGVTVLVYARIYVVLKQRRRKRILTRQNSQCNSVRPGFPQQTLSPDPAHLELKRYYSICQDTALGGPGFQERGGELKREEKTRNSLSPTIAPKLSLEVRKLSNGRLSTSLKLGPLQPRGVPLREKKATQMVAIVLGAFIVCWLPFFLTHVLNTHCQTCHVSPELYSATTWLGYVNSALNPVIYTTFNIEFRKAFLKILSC
In the next experiment the target is D(1B) dopamine receptor (Homo sapiens, UniProt P21918). The experiment can be described thus: Binding affinity for human recombinant dopamine receptor D5.
Sequence of D(1B) dopamine receptor (P21918 whole entry): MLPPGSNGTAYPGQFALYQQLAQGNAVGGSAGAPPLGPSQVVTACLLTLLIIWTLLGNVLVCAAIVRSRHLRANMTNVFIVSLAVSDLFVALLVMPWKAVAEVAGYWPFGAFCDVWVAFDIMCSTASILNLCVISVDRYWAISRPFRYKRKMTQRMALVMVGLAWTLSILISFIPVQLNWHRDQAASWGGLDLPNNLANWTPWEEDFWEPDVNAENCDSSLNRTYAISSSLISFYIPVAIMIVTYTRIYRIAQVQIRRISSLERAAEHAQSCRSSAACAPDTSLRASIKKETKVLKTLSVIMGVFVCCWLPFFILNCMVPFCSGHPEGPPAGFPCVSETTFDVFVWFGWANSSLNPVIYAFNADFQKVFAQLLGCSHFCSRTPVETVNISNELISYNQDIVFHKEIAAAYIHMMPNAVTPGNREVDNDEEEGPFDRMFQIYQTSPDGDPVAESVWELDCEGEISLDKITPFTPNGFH

Sequence of D(1A) dopamine receptor (P21728 whole entry): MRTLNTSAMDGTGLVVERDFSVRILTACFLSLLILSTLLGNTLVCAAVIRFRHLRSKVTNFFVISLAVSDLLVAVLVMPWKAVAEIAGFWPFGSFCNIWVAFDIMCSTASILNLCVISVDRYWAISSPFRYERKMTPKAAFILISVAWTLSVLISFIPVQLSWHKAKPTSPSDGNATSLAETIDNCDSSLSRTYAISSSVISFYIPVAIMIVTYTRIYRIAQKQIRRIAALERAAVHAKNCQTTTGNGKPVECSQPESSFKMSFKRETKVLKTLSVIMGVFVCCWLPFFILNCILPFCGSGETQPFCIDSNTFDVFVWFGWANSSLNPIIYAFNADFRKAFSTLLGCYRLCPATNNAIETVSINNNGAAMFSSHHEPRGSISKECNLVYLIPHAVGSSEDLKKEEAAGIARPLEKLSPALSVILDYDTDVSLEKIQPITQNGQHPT
Description for D(1A) dopamine receptor: Binding affinity for human recombinant dopamine receptor D1
Description for D(3) dopamine receptor: Binding affinity for human recombinant dopamine receptor D3

By Ki is commonly meant a measure of affinity in units of concentration, obtained from inhibition or displacement. For the compound `COc1ccc2c(c1)OCCN(C)CCc1ccccc1C2`, the inhibition constant (Ki) was 35.5 nM on D(1A) dopamine receptor; 0.546 µM at D(4) dopamine receptor; 158 nM on D(2) dopamine receptor; 1600 nM on D(3) dopamine receptor; 1.8 nM on D(1B) dopamine receptor.
Turning to `CN1CCOc2cc(O)ccc2Cc2ccccc2CC1`, the inhibition constant (Ki) came out at 3.2 nM on D(1A) dopamine receptor; 0.375 µM at D(4) dopamine receptor; 274 nM on D(2) dopamine receptor; 1380 nM on D(3) dopamine receptor; 0.57 nM at D(1B) dopamine receptor.
In the case of `c1ccc(Cc2ccccc2OCCN2CCN(c3ccccc3)CC2)cc1`, the Ki at D(1A) dopamine receptor was 1480 nM; at D(4) dopamine receptor it was over 10 µM; on D(2) dopamine receptor, 4190 nM; at D(3) dopamine receptor it was 2860 nM; at D(1B) dopamine receptor, 620 nM.
For the compound `CC1CN(CCOc2ccccc2Cc2ccccc2)CCO1` (stereo not given), the Ki was 1680 nM on D(1A) dopamine receptor, over 10 µM at D(4) dopamine receptor, over 10000 nM at D(2) dopamine receptor and over 10000 nM on D(3) dopamine receptor.
Take `OC(c1ccccc1)c1ccccc1OCCN1CCCC1` (stereo not given): the Ki was 2620 nM on D(1A) dopamine receptor, over 10 µM at D(4) dopamine receptor, 6280 nM on D(2) dopamine receptor and over 10000 nM on D(3) dopamine receptor.
In the case of `c1ccc(Cc2ccccc2OCCCN2CCCC2)cc1`, the Ki on D(1A) dopamine receptor was 113 nM; on D(4) dopamine receptor, 1.26 µM; on D(2) dopamine receptor it was 1010 nM; at D(3) dopamine receptor it was 2920 nM; at D(1B) dopamine receptor it was 113 nM.
As to `c1ccc(Cc2ccccc2NCCN2CCCC2)cc1`, the Ki is over 10000 nM at D(1A) dopamine receptor, over 10 µM on D(4) dopamine receptor, over 10000 nM at D(2) dopamine receptor and 4650 nM on D(3) dopamine receptor.
Take `c1ccc(Cc2ccccc2OCCN2CCCCC2)cc1`: the inhibition constant (Ki) worked out at 33.7 nM on D(1A) dopamine receptor; 4.48 µM at D(4) dopamine receptor; 1020 nM at D(2) dopamine receptor; 7800 nM at D(3) dopamine receptor; 43 nM on D(1B) dopamine receptor.
As to `O=C(c1ccccc1)c1ccccc1OCCN1CCCC1`, the Ki at D(1A) dopamine receptor was 1650 nM; on D(4) dopamine receptor, over 10 µM; on D(2) dopamine receptor, 5320 nM; on D(3) dopamine receptor, 2410 nM.
As for `c1ccc(Cc2ccccc2OCCN2CCOCC2)cc1`, the Ki at D(1A) dopamine receptor is 201 nM; at D(4) dopamine receptor, 6.48 µM; on D(2) dopamine receptor it was over 10000 nM; on D(3) dopamine receptor it was over 10000 nM; at D(1B) dopamine receptor, 366 nM.
As for `c1ccc(Cc2ccccc2OCCN2CCCC2)cc1`, the inhibition constant Ki was 379 nM at D(1A) dopamine receptor; 1.43 µM on D(4) dopamine receptor; over 10000 nM on D(2) dopamine receptor; 1820 nM on D(3) dopamine receptor; 951 nM on D(1B) dopamine receptor.
For `CCN(CC)CCOc1ccccc1Cc1ccccc1` [ETOLOXAMINE], the inhibition constant (Ki) at D(1A) dopamine receptor is 1960 nM; at D(4) dopamine receptor, over 10 µM; at D(2) dopamine receptor, 2020 nM; at D(3) dopamine receptor it was 4670 nM.
As to `CN(C)CCOc1ccccc1Cc1ccccc1` [PHENYLTOLOXAMINE], the inhibitory constant (Ki) on D(1A) dopamine receptor is 343 nM; on D(4) dopamine receptor it was 2.77 µM; on D(2) dopamine receptor, 2740 nM; at D(3) dopamine receptor, over 10000 nM; on D(1B) dopamine receptor it was 414 nM.
